In patent EP4501917A1, “3,4-DIHYDROQUINOXALINE-2-CARBOXIMIDE DERIVATIVE COMPOUND AND PHARMACEUTICAL COMPOSITION COMPRISING SAME FOR PREVENTING OR TREATING CANCER DISEASE” (Daegu-Gyeongbuk Medical Innovation Foundation, priority 2022, dated 2023):

How the values were obtained:
HDAC8 = biological target: T1, HDAC8 (Homo sapiens, UniProt Q9BY41); experiment: Selective HDAC inhibition, HDAC Fluorogenic assay kit; format: biochemical
T1 construct: purchased BPS bioscience
T1 sequence (Q9BY41 1-377): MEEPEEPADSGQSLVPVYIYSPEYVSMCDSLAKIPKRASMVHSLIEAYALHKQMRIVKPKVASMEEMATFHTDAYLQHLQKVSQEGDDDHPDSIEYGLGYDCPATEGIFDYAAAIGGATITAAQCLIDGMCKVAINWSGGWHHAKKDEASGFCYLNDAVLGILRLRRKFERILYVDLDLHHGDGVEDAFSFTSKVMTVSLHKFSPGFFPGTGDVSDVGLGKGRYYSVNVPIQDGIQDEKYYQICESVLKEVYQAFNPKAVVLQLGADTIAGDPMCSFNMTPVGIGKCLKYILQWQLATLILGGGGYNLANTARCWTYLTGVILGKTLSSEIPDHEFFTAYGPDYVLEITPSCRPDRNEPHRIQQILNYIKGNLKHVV
Description: (§1) For analysis, HDAC substrate 3 was diluted in buffer to a concentration of 200 µM and used in HDAC 1, 2, 3, 6, and 10 assays, HDAC substrate 2A was diluted in buffer to a concentration of 200 µM and used in HDAC 4, 7, 9, and 11 assays, HDAC substrate 2A was diluted in buffer to a concentration of 20 µM and used in HDAC 8 assays. For the HDAC 11 assay, a dedicated buffer included in the kit was used separately, and the same buffer was used for the remaining assays. The compound of the Example was diluted to 1 mM (1% DMSO concentration) using DMSO to obtain a final concentration of 10 µM, and prepared by diluting 1/10 with assay buffer. In a 96-well black round-bottom plate, 5 µL of the diluted compound of the Example, 5 µL of the diluted HDAC substrate, 5 µL of BSA (1 mg/ml), 5 µL of the HDAC enzyme diluted to the appropriate concentration, and 30 µL of assay buffer were added, and the enzyme reaction was performed at 37°C for 30 minutes. […] Afterwards, 50 µL of 2X HDAC developer was added to each well. After reacting for 15 minutes at room temperature, the fluorescence values at excitation wavelengths of 350-380 nm and emission wavelengths of 440-460 nm were measured using a microplate reader (Synergy Neo).

[1] = system: PC-3 prostate cancer cells; experiment: Prostate cancer cell growth inhibition, CCK-8 assay; format: cell-based, human; conditions: PC-3 cells, result in words
Description: PC-3, a human-derived prostate cancer cell line, was cultured with RPMI1640 (10% fetal bovine serum, 1% Penicillin Streptomycin) culture medium at 37°C, 5% CO2 condition. All cells in the experiment were subcultured when they reached a confluency of approximately 80% to 90%, and only cells that had not passed 20 passages were used.
After culturing, 10 µL CCK-8 reagent was added and the absorbance was measured after 1 hour. The absorbance was measured at 450 nm using a microplate reader [BMG Labtech (Offenburg, Germany)].

HDAC11 = biological target: T2, HDAC11 (Homo sapiens, UniProt Q96DB2); experiment: Selective HDAC inhibition, HDAC Fluorogenic assay kit; conditions: read-out: HDAC11 enzyme activity (%)
T2 sequence (Q96DB2 1-347): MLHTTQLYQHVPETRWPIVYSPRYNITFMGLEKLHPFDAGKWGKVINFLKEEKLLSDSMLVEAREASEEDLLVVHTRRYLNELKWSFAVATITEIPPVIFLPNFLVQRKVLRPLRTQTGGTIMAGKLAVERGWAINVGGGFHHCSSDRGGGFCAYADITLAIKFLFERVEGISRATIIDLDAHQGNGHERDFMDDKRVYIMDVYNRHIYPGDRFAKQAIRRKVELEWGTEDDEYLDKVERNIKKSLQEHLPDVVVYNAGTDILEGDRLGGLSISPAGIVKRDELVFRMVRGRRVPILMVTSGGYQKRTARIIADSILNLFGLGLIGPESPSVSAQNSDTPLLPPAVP
Description: as §1

remaining activity at 10 µM (HDAC8; final concentration 10 µM, HDAC substrate 2A 20 µM, positive control (1% DMSO) set to 100, read-out: HDAC8 enzyme activity (%)): 14.1%
remaining activity at 10 µM (HDAC11): 97.3%
Compound: Cc1cc2nc(C(=O)NCCc3c[nH]c4ccc(O)cc34)c(=O)n(C[C@H](O)[C@H](O)[C@H](O)CO)c2cc1C [Example 27, N-(2-(5-hydroxy-1H-indol-3-yl)ethyl)-6,7-dimethyl-3-oxo-4-((2S,3S,4R)-2,3,4,5-tetrahydroxypentyl)-3,4-dihydroquinoxaline-2-carboxamide]
selective inhibitory effect on HDAC8 (HDAC8; result in words, HDAC8 versus HDAC1, 2, 3, 4, 6, 7, 9, 10, 11, summary of Table 3): selective and excellent inhibitory activity only against HDAC8
cancer cell viability inhibition rate ([1]; compared with PCI-34051, FIG. 1): superior to that of PCI-34051
cell viability ([1]; various concentrations, 24 hours and 48 hours, FIG. 1): effectively reduced the viability of prostate cancer cells in a concentration- and time-dependent manner
